Tests used:
DENV2 [1] = experiment: DENV2-induced cytopathic effect (CPE) reduction screening in Vero E6 cells; type: cell-based, Dengue virus type 2; details: for inhibition at 10 µM: Dengue virus
Procedure: (§1) In the antiviral screening assay, each tested GL conjugate at 10 μM was used to survey the anti-DENV activity in Vero E6 cells using cytopathic effect (CPE) and infectivity reduction assays as described in our prior report. In CPE and infectivity reduction assays, Vero E6 cells were infected by DENV2 at an MOI of 0.005 and simultaneously treated 10 μM of indicated GL conjugate for 96 h, and then photographed by microscope for examining the levels of DENV2-induced CPE in infected cells treated with or without GL conjugate. Meanwhile, the cells were further performed using immunofluorescence assay (IFA) with anti-DENV NS4B antibodies (GeneTex, Inc., Hsinchu, Taiwan) and anti-rabbit IgG antibodies conjugated with AF555 (ThermoFisher, Waltham, MA, USA) plus DAPI (4′,6-diamidino-2-phenylindole) nuclear staining. Finally, the DENV-2 infectivity was measured according to the ratio of DENV NS4B-positive cells to DAPI-stained cells in the well of mock-treated or treated cells, as described in [45, 59, 60].

DENV2 [2] = experiment: DENV2 infectivity inhibition (anti-NS4B immunofluorescence) in Vero E6 cells; type: cell-based, Dengue virus type 2; details: for inhibition at 10 µM: Vero C1008, 10 μM compound, DENV2, Vero E6 cells, 96 h, read-out: Inhibition (%) at 10 μM (reduction of NS4B-positive cells); for Selectivity Index (CC50/ IC50): DENV2
Excerpt: as §1, with “In the antiviral screening assay, each tested GL conjugate at 10 μM was used to survey the anti-DENV activity in Vero E6 cells using cytopathic effect (CPE) and infectivity reduction assays as described in our prior report.” left out, “[…],” for “Vero E6 cells were infected by DENV2 at an MOI of 0.005 and simultaneously treated 10 μM of indicated GL conjugate for 96 h,”

[3] = parameters: method as in earlier work; details: mammals; cited from earlier work
[4] = MTT cytotoxicity assay in Vero E6 cells; type: cell-based; details: African green monkey
Procedure: (§2) Vero E6 cells and A549 cells (5 × 10^3 cells/well) were treated with the serial dilution of GL conjugates at 0, 0.1, 10, 20, and 50 μM for examining the in vitro cytotoxicity of tested compounds. After 96-h incubation at 37 °C, the cells were incubated with MTT (3-(4,5-Dimethylthiazol-2-yl)-2,5-Diphenyltetrazolium Bromide) solution for another 4 h incubation, mixed with DMSO for 15 min after the removal of media, and then measured the absorbance at 570 nm. The viability (%) of treated cells was quantified according to the reduced ability of MTT. Finally, the concentration for reducing 50% cell viability (the 50% cytotoxic concentration, CC50) was determined by regression analysis of the concentration–response survival curve.

DENV2 [5] = experiment: Time-of-addition/compound removal assay with DENV2 in Vero E6 cells; type: cell-based, Dengue virus type 2; details: time-of-addition/removal, Vero E6 cells
Procedure: Figure 5 Time-of-addition and removal assay for analyzing antiviral action of compounds 3 (A), 6 (B), 11 (C), and 21 (D) in Vero E6 cells. In the attachment mode, cells were pre-cooled and incubated with fresh-prepared mixtures of active compounds with DENV2 at 4 °C for 1 h. After the removal of the mixtures, the cells were kept at 37 °C for 96 h (a cycle of viral replication) and then were performed by immunofluorescent assay plus DAPI staining. In entry and post-entry modes, cells were infected with DENV2 and treated with the compounds simultaneously (the entry stage) or 1-h post-infection (post-entry stage). After a 1 h incubation period, the virus/compound mixture was removed; the cell monolayer was washed with PBS and cultured for 96 h and then subjected to immunofluorescence staining and DAPI. Finally, the inhibition percentage of DENV2 infectivity was calculated as follows: 1-(percentage of NS4B positivity in treated cells/percentage of NS4B positivity in mock-treated cells). *** p < 0.001 compared with the other two antiviral action modes.
The time-of-addition assays consisted of three modes including attachment treatment/removal, entry-treatment/removal, and post-entry treatment/removal modes. In the attachment-treatment/removal mode, Vero E6 cells monolayer in 6-well plate was placed at 4 °C for 2 h and incubated with the fresh-prepared mixture of DENV-2 (MOI = 0.005) with the active compound at indicated concentrations for 2 h at 4 °C, and then washed with phosphate-buffered saline (PBS). In the entry-treatment/removal mode, Vero E6 cells were simultaneously treated with the active compound and infected DENV-2 (MOI = 0.005) in 6-well plates, incubated for 1 h at 37 °C, and then washed with PBS. In the post-entry treatment/removal mode, the cells were infected with DENV-2 for 1 h at 37 °C, treated with the active compounds at indicated concentrations for 1 h at 37 °C, respectively, and then washed by PBS. After active compound removal (washout), the cells were incubated at 37 °C for 96 h, and then were analyzed by immunofluorescent and DAPI staining assay for determining the residual DENV-2 infectivity, as described above. The inhibitory activity of the transient treatment by active compounds on attachment, entry, and post-entry stages of DENV replication in vitro was determined based on the residual infectivity.

DENV1 and DENV2 = experiment: DENV infectivity inhibition, summary over DENV1 and DENV2 in Vero E6 and A549 cells; type: cell-based, Dengue virus; details: Dengue virus, range over DENV1 and DENV2, Vero E6 and A549 cells; read-out: IC50 in DENV infectivity (range over assays)
Excerpt: as §1, with “In the antiviral screening assay, each tested GL conjugate at 10 μM was used to survey the anti-DENV activity in Vero E6 cells using cytopathic effect (CPE) and infectivity reduction assays as described in our prior report.” left out, “[…],” for “Vero E6 cells were infected by DENV2 at an MOI of 0.005 and simultaneously treated 10 μM of indicated GL conjugate for 96 h,”

DENV2 [6] = experiment: DENV2 infectivity inhibition (anti-NS4B immunofluorescence) in A549 cells; type: cell-based, Dengue virus type 2
[7] = MTT cytotoxicity assay in A549 cells; type: cell-based; details: human
Procedure: as §2

DENV1 = DENV1 infectivity inhibition assay in Vero E6 cells; type: cell-based; details: Dengue virus, DENV1, Vero C1008, read-out: IC50 in the DENV1 infectivity inhibition assay
Procedure: as §1
Supplemental Figure S25. Infectivity inhbition of DENV1 in Vero E6 cells by active GL conjugates. Cells were infected with DENV1 in the presence and absence of Compounds 3, 6, 11, and 21 at the concentrations of 0.1, 1, and 10 μM, respectively. Treated/infected Vero E6 cells were also analyzed using immunofluorescence staining with anti-DENV2 NS4B antibodies.
Residual infectivity was discovered by the ratio of DENV2 NS4B positive cells to total cells stained with DAPI, and relative inhibition activity was determined based on full infectivity with the subtraction of its residual infectivity.
(1 picture or pasted object on this page, not shown here)

[8] = Vero C1008, 10 μM compound, DENV2, Vero E6 cells, 96 h, read-out: CPE Reduction at 10 μM
[9] = 10 μM compound, DENV2, Vero E6 cells, 96 h

## CC1(C)[C@@H](O[C@H]2O[C@H](C(=O)O)[C@@H](O)[C@H](O)[C@H]2O[C@@H]2O[C@H](C(=O)O)[C@@H](O)[C@H](O)[C@H]2O)CC[C@]2(C)[C@H]3C(=O)C=C4[C@@H]5C[C@@](C)(C(=O)O)CC[C@]5(C)CC[C@@]4(C)[C@]3(C)CC[C@@H]12 [Compound 1, Glycyrrhizic acid]
DENV2 [1]; [8]
  inhibition at 10 µM: 50 to 75%
DENV2 [2]; Dengue virus, DENV2, Vero C1008, Vero E6 cells, read-out: Inhibition of DENV2 Infectivity (IC50)
  IC50: 8.1 ± 0.21 µM
DENV2 [2]; Dengue virus
  inhibition at 10 µM: 70.5%
DENV2 [2]; Vero E6 cells
  Selectivity Index (CC50/ IC50): >12.3
[3]
  LD50: 5000 mg/kg
[4]
  CC50 at 96 h: > 100 µM

## COC(=O)[C@@H](NC(=O)[C@H]1O[C@@H](O[C@H]2[C@H](OC3CC[C@@]4(C)C(CC[C@]5(C)C4C(=O)C=C4C6C[C@@](C)(C(=O)O)CC[C@]6(C)CC[C@]45C)C3(C)C)O[C@H](C(=O)N[C@H](C(=O)OC)C(C)C)[C@@H](O)[C@@H]2O)[C@H](O)[C@@H](O)[C@@H]1O)C(C)C (stereo partly drawn) [Compound 2, 3-O-{2-O-[N-(β-D-Glucopyranosyluronoyl)-L-valinemethyl ester]-N-(β-D-glucopyranosyluronoyl)-L-valinemethyl ester}-(3β, 20β)-11-oxo-30-norolean-12-ene-30-oic Acid]
DENV2 [1]; [9]
  CPE Reduction at 10 μM: −

## CC[C@H](C)[C@H](NC(=O)[C@H]1O[C@@H](O[C@H]2[C@H](OC3CC[C@@]4(C)C(CC[C@]5(C)C4C(=O)C=C4C6C[C@@](C)(C(=O)O)CC[C@]6(C)CC[C@]45C)C3(C)C)O[C@H](C(=O)N[C@H](C(=O)OC)[C@@H](C)CC)[C@@H](O)[C@@H]2O)[C@H](O)[C@@H](O)[C@@H]1O)C(=O)OC (stereo partly drawn) [Compound 4, 3-O-{2-O-[N-(β-D-Glucopyranosyluronoyl)-L-isoleucinemethyl ester]-N-(β-D-glucopyranosyluronoyl)-L-isoleucinemethyl ester}-(3β, 20β)-11-oxo-30-norolean-12-ene-30-oic Acid]
DENV2 [1]; [9]
  CPE Reduction at 10 μM: −

## COC(=O)[C@H](Cc1ccc(O)cc1)NC(=O)[C@H]1O[C@@H](O[C@H]2[C@H](OC3CC[C@@]4(C)C(CC[C@]5(C)C4C(=O)C=C4C6C[C@@](C)(C(=O)O)CC[C@]6(C)CC[C@]45C)C3(C)C)O[C@H](C(=O)N[C@@H](Cc3ccc(O)cc3)C(=O)OC)[C@@H](O)[C@@H]2O)[C@H](O)[C@@H](O)[C@@H]1O (stereo partly drawn) [Compound 6, 3-O-{2-O-[N-(β-D-glucopyranosyluronoyl)-L-tyrosinemethyl ester]-N-(β-D-glucopyranosyluronoyl)-L-tyrosinemethyl ester}-(3β,20β)-11-oxo-30-noroleane-12-ene-30-oic acid]
DENV2 [5]
  Stage of DENV2 replication affected (attachment, entry, post-entry modes): predominantly impeded the post-entry stage
DENV2 [1]; [8]
  inhibition at 10 µM: 75 to 100%
DENV1 and DENV2
  IC50: 0.1 to 5.98 µM
DENV2 [2]; Dengue virus, DENV2, Vero C1008, read-out: Inhibition of DENV2 Infectivity (IC50, μM), Vero E6 cells
  IC50: 6 µM
DENV2 [2]; Dengue virus
  inhibition at 10 µM: 94%
DENV2 [2]; Vero E6 cells
  Selectivity Index (CC50/ IC50): >16.7
DENV2 [2]; Vero E6 cells, read-out: Inhibition of DENV2 Infectivity (IC50)
  IC50: 5.98 ± 0.41 µM
DENV2 [6]
  Selectivity Index (CC50/ IC50): >1000
DENV2 [6]; Dengue virus
  IC50: < 100 nM
[7]
  CC50 at 96 h: > 100 µM
DENV1
  IC50: < 100 nM
[4]
  CC50 at 96 h: > 100 µM

## COC(=O)[C@@H](Cc1ccc(O)cc1)NC(=O)[C@H]1O[C@@H](O[C@H]2[C@H](OC3CC[C@@]4(C)C(CC[C@]5(C)C4C(=O)C=C4C6C[C@@](C)(C(=O)O)CC[C@]6(C)CC[C@]45C)C3(C)C)O[C@H](C(=O)N[C@H](Cc3ccc(O)cc3)C(=O)OC)[C@@H](O)[C@@H]2O)[C@H](O)[C@@H](O)[C@@H]1O (stereo partly drawn) [Compound 7, 3-O-{2-O-[N-(β-D-Glucopyranosyluronoyl)-D-tyrosinemethyl ester]-N-(β-D-glucopyranosyluronoyl)-D-tyrosinemethyl ester}-(3β, 20β)-11-oxo-30-noroleane-12-ene-30-oic Acid]
DENV2 [1]; DENV2, Vero C1008, read-out: CPE inhibition
  inhibition at 10 µM: 25 to 50%
DENV2 [1]; [8]
  inhibition at 10 µM: 25 to 50%
DENV2 [2]; Dengue virus
  inhibition at 10 µM: 51.7%

## COC(=O)[C@H](CCSC)NC(=O)[C@H]1O[C@@H](O[C@H]2[C@H](OC3CC[C@@]4(C)C(CC[C@]5(C)C4C(=O)C=C4C6C[C@@](C)(C(=O)O)CC[C@]6(C)CC[C@]45C)C3(C)C)O[C@H](C(=O)N[C@@H](CCSC)C(=O)OC)[C@@H](O)[C@@H]2O)[C@H](O)[C@@H](O)[C@@H]1O (stereo partly drawn) [Compound 8, 3-O-{2-O-[N-(β-D-Glucopyranosyluronoyl)-L-methioninemethyl ester]-N-(β-D-glucopyranosyluronoyl)-L-methioninemethyl ester}-(3β, 20β)-11-oxo-30-noroleane-12-ene-30-oic Acid]
DENV2 [1]; [8]
  inhibition at 10 µM: 25 to 50%
DENV2 [2]; Dengue virus
  inhibition at 10 µM: 51.6%

## CCOC(=O)CCNC(=O)[C@H]1O[C@@H](O[C@H]2[C@H](OC3CC[C@@]4(C)C(CC[C@]5(C)C4C(=O)C=C4C6C[C@@](C)(C(=O)O)CC[C@]6(C)CC[C@]45C)C3(C)C)O[C@H](C(=O)NCCC(=O)OCC)[C@@H](O)[C@@H]2O)[C@H](O)[C@@H](O)[C@@H]1O (stereo partly drawn) [Compound 15, 3-O-{2-O-[N-(β-D-Glucopyranosyluronoyl)-β-alanineethyl ester]-N-(β-D-glucopyranosyluronoyl)-β-alanineethyl ester}-(3β, 20β)-11-oxo-30-noroleane-12-ene-30-acid]
DENV2 [1]; [8]
  inhibition at 10 µM: 25 to 50%
DENV2 [2]; Dengue virus
  inhibition at 10 µM: 53.6%

## CCOC(=O)[C@@H](Cc1ccccc1)NC(=O)CNC(=O)[C@H]1O[C@@H](O[C@H]2[C@H](OC3CC[C@@]4(C)C(CC[C@]5(C)C4C(=O)C=C4C6C[C@@](C)(C(=O)O)CC[C@]6(C)CC[C@]45C)C3(C)C)O[C@H](C(=O)NCC(=O)N[C@H](Cc3ccccc3)C(=O)OCC)[C@@H](O)[C@@H]2O)[C@H](O)[C@@H](O)[C@@H]1O (stereo partly drawn) [Compound 16, 3-O-{2-O-[N-(β-D-Glucopyranosyluronoyl)-glycyl-L-phenylalanineethyl ester]-N-(β-D-glucopyranosyluronoyl)-glycyl-L-phenylalanineethyl ester}-(3β,20β)-11-oxo-30-noroleane-12-ene-30-acid]
DENV2 [1]; [8]
  inhibition at 10 µM: 50 to 75%
DENV2 [2]; Dengue virus
  inhibition at 10 µM: 63.8%
